Measurements published in patent publication US20220259235A1, “EGFR Inhibitor, Composition, and Preparation Method Therefor” (BETTA PHARMACEUTICALS CO., LTD, priority 2019, published 2022).

Columns and labels:
[1] = molecular target: Ba/F3-L858R/T790M/C797S (Homo sapiens, UniProt P00533, T790M/C797S/L858R, cells depend on it); assay: Ba/F3-L858R/T790M/C797S cell proliferation assay (CellTiter Glo, 72 h); assay type: cell-based; details: CTG, numeric values, read-out: BaF3 L858R/T790M/C797S IC50
Description: (§1) Cell line: Ba/F3 cells with stable overexpression of Δ19del/T790M/C797S or L858R/T790M/C797S mutant genes, named Ba/F3-Δ19del/T790M/C797S and Ba/F3-L858R/T790M/C797S, and A431 EGFR wild-type cell line.
(§2) RPMI 1640 and 10% FBS and 1% PS; _EM, 10% PBS and 1% PS
(§3) a) Dilute the test compound (20 mM stock solution) to 10 mM with 100% DMSO as the starting concentration, and then serially dilute 3 times with a “9+0” concentration in 96-well dilution plate (Cat #P-05525, Labcyte);
(§4) b) Dilute compound solution thereof to 1:100 in medium to prepare 10-fold working solution;
(§5) a) Centrifuge the growth cells in logarithmic phase at 1000 rpm for 5 minutes, resuspend the cells in culture medium, and then count the cells;
(§6) b) Inoculate the cells into a 96-well cell culture plate with a density of 2000 cells/well;
(§7) a) The compound prepared in Step 2 was added to a cell plate with 15 μL per well at final concentrations of 1000, 333, 111.1, 37, 12.3, 4.1, 1.4, 0.5, 0.2, and 0 nM. The final concentration of DMSO was 0.1%. The blank control well is with medium (0.1% DMSO).
(§8) b) Incubate cells in an incubatorother 72 hours;
(§9) a) Take out the 96-well cell culture plate and add 50 μl CTG reagent (CellTiter Glo kit, promega, Cat #G7573);
(§10) b) Shake the plate for 2 minutes and let cool at room temperature for 10 minutes,
(§11) c) Read luminous signal value with Perkin Elmer reader.
(§12) Analysis of Experimental Data
(§13) The data were analyzed by GraphPad Prism 6.0 software to obtain the fitting curve of compound activity.
(§14) Fining compound IC50 from nonlinear regression equation:
(§15) Y=Min+(Max−Min)/(1+10^((LogIC50−X)*slope));
(§16) X: Logarithm of compound concentration; Y: luminous signal
(§17) As illustrated in examples, IC50 value is within the following range for the compound of the present invention: “A” represents “IC50≤50 nM”; “B” represents “50 nM<IC50<100 nM”.

[2] = molecular target: Ba/F3-Δ19del/T790M/C797S (Homo sapiens, UniProt P00533, T790M/C797S, cells depend on it, form not given); assay: Ba/F3-Δ19del/T790M/C797S cell proliferation assay (CellTiter Glo, 72 h); assay type: cell-based; details: CTG, numeric values, read-out: BaF3 Δ19del/T790M/C797S IC50
Description: as §1, §2, §3, §4, §5, §6, §7, §8, §9, §10, §11, §12, §13, §14, §15, §16, §17

[3] = system: A431 EGFR wild-type cell line; assay: A431 EGFR wild-type cell proliferation assay (CellTiter Glo, 72 h); assay type: cell-based; details: Homo sapiens, A-431, CTG, read-out: A431 EGFR WT IC50
Description: as §1, §2, §3, §4, §5, §6, §7, §8, §9, §10, §11, §12, §13, §14, §15, §16, §17

[4] = Liver microsomal clearance test, human; assay type: in vitro ADME; details: Human liver microsomes, 0.5 mg/mL, NADPH
Description: (§18) Test 3 Liver Microsomal Clearance Test
(§19) 1. Prepare 0.5 mg/mL liver microsome diluent containing K-butter and MgCl2:
(§20) 2.1 Take 356 μL of the liver microsome diluent prepared above and add it to the preset wells of the incubation plate, the number of multiple wells n=1, mark it as the incubation plate.
(§21) 2.2 Take 4 μL of the positive control compound Verapamil (50 μM) and the working solution of the test compound (200 μM) into the above incubation plate containing 356 μL of liver microsome diluent, and mix well (The dilution solvent from the stock solution to the working solution is a mixed solvent of acetonitrile: methanol: water=1:1:2, and the final concentration of DMSO is ≤0.5%),
(§22) 2.3 Place the incubation plate in a 37° C. thermostatic oscillator (at shaking speed of 100 rpm) for pre-incubation with 10 min.
(§23) 2.4 Add 40 μL of 10 mM NADPH (add 40 μL of K-buffer to the wells without NADPH) to each reaction well to start the reaction and start timing.
(§24) 3. Sample collection and treatment:
(§25) 3.1 After adding NADPH to start the reaction, immediately take out 50 μL of the sample and add it to the precipitation plate pre-added with 400 μL of stop solution, and shake on an oscillator at 600 rpm for 5 min at room temperature as a 0 min sample.
(§26) 3.2 At the predetermined time points of 5 min, 15 min and 45 min, take out 50 μL of sample from the incubation plate and add it to the precipitation plate. The subsequent steps were the same as the treatment of 0 min sample. 3.3 After balancing, centrifuge above precipitation plate at 3200 rpm for 10 min at 4° C.
(§27) 3.4 Take 50 μL of the supernatant after centrifugation and add it to pre-added 20% acetonitrile water at appropriate proportion, shake on an oscillator at 600 rpm for 2 min at room temperature, mix well, and put it into the LC-MS/MS sampler for sample injection.
as §12
1. […]

[5] = Liver microsomal clearance test, monkey; assay type: in vitro ADME; details: Monkey liver microsomes, 0.5 mg/mL, NADPH
Description: as §18, §19, §20, §21, §22, §23, §24, §25, §26, §27, §12
1. […]

[6] = Liver microsomal clearance test, dog; assay type: in vitro ADME; details: Dog liver microsomes, 0.5 mg/mL, NADPH
Description: as §18, §19, §20, §21, §22, §23, §24, §25, §26, §27, §12
1. […]

[7] = Liver microsomal clearance test, rat; assay type: in vitro ADME; details: Rat liver microsomes, 0.5 mg/mL, NADPH
Description: as §18, §19, §20, §21, §22, §23, §24, §25, §26, §27, §12
1. […]

[8] = Liver microsomal clearance test, mice; assay type: in vitro ADME; details: Mice liver microsomes, 0.5 mg/mL, NADPH
Description: as §18, §19, §20, §21, §22, §23, §24, §25, §26, §27, §12
1. […]

[9] = molecular target: T1, hERG protein (Homo sapiens, UniProt Q12809); assay: hERG IC50 test (tracer/membranes fluorescence polarization); assay type: binding; details: hERG membranes and tracer, read-out: IC50 results of hERG protein to compound
T1 construct: purchased
Description: 1. Thaw hERG kits (Tracer, E-4031 and Membranes) at room temperature;
2. Add 10 μL of positive compound E-4031 and 10 μL of test compound (10 mM) to 384 well plate (Corning, Art. No. 3658);
3. E-4031 is sequentially 5-fold diluted by pure water (10 concentration points in total), and the test compound is sequentially 5-fold diluted by DMSO (10 concentration points in total).
4. Take 1 μL of all gradient concentrations and add them in parallel to the wells containing 24 μL Assay buffer, and dilute 25 times (take 3 μL of the maximum concentration of E-4031 and add it to 72 μL Assay buffer).
5. Add 10 μL Membranes to another black 384-well plate (Coming, Art.4511).
6. Take 5 μL of 25-fold diluted working solution of positive and test compounds, and add it to above-mentioned plate with 10 μL Membranes, 2 copies at each concentration.
7. Negative control: Add 5 μL Assay buffer to the well with 10 μL Membranes, 8 copies in parallel;
8. Positive control: Add 5 μL E-4031 (120 μM) to the well with 10 μL Membranes, 8 copies in parallel;
9. […]
10. Before measuring the fluorescence polarization, cover the analysis plate to protect the reagents from light and evaporation, and incubate at room temperature (20-25° C.) for 2 hours.
11. Read fluorescence polarization in PerkinElmer EnVision® Multilabel after incubation; […]

Chain of Ba/F3-Δ19del/T790M/C797S (P00533 with tags, fused parts or gaps DEL746-750/T790M/C797S, form open): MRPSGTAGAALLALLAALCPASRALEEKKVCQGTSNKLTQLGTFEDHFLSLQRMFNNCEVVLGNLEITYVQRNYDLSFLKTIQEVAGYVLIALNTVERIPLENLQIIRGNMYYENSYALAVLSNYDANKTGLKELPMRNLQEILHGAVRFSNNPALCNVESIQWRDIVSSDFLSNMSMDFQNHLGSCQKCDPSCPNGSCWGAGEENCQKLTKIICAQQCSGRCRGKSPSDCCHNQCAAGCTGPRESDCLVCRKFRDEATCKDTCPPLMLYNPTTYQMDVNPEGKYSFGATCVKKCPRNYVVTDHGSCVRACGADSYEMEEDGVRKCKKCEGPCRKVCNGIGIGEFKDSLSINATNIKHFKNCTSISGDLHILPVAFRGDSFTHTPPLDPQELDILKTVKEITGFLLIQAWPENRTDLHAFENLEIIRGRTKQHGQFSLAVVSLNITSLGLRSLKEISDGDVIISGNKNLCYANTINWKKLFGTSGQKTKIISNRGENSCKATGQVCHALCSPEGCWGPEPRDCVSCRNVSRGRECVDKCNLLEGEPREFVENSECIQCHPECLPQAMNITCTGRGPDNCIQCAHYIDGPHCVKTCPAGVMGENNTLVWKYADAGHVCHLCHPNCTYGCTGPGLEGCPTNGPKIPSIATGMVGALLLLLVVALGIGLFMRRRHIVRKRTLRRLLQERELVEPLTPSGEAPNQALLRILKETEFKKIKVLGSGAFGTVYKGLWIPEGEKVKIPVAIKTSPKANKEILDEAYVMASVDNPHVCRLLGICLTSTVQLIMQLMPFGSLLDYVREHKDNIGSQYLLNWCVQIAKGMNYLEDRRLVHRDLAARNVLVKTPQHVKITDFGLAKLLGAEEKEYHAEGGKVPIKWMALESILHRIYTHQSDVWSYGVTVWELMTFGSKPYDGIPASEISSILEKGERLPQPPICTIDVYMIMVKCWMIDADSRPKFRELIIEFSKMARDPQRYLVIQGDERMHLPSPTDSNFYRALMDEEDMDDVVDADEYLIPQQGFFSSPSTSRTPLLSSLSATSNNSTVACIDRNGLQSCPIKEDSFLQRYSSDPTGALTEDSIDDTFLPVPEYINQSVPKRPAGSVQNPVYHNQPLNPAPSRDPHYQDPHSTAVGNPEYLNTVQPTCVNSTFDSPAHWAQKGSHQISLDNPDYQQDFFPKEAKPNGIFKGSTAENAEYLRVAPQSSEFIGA
T1 sequence (Q12809 whole entry): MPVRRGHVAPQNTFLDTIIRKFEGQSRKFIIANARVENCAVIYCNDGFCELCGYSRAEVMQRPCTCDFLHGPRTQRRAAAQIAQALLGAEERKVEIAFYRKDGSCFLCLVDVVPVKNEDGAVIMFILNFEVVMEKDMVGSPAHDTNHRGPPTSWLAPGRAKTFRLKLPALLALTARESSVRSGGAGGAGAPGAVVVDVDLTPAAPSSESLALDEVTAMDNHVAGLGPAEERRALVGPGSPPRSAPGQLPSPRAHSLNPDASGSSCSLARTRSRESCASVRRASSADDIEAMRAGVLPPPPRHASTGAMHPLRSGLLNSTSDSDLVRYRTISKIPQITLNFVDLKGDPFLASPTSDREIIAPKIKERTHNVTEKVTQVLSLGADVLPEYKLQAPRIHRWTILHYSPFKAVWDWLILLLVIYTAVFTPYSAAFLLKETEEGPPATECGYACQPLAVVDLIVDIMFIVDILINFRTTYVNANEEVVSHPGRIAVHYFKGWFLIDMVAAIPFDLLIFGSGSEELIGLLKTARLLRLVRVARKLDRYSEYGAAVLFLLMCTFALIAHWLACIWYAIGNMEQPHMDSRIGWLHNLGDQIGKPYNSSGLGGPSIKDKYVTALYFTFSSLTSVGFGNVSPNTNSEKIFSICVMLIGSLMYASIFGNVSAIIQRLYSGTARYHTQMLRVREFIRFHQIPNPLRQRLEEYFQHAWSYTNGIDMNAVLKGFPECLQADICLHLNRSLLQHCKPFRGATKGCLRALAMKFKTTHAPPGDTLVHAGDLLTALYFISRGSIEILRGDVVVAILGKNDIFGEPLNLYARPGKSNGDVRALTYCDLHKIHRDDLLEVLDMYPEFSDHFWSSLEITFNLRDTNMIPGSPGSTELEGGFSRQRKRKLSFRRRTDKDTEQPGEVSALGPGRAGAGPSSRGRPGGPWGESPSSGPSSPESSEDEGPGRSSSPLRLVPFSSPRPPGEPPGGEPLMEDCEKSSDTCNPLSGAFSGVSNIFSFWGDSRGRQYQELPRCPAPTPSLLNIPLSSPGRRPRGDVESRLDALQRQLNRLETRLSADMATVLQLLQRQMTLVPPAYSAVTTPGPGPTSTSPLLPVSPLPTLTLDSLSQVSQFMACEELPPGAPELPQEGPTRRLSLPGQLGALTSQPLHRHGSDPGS
Chain of Ba/F3-L858R/T790M/C797S (P00533 whole entry T790M/C797S/L858R): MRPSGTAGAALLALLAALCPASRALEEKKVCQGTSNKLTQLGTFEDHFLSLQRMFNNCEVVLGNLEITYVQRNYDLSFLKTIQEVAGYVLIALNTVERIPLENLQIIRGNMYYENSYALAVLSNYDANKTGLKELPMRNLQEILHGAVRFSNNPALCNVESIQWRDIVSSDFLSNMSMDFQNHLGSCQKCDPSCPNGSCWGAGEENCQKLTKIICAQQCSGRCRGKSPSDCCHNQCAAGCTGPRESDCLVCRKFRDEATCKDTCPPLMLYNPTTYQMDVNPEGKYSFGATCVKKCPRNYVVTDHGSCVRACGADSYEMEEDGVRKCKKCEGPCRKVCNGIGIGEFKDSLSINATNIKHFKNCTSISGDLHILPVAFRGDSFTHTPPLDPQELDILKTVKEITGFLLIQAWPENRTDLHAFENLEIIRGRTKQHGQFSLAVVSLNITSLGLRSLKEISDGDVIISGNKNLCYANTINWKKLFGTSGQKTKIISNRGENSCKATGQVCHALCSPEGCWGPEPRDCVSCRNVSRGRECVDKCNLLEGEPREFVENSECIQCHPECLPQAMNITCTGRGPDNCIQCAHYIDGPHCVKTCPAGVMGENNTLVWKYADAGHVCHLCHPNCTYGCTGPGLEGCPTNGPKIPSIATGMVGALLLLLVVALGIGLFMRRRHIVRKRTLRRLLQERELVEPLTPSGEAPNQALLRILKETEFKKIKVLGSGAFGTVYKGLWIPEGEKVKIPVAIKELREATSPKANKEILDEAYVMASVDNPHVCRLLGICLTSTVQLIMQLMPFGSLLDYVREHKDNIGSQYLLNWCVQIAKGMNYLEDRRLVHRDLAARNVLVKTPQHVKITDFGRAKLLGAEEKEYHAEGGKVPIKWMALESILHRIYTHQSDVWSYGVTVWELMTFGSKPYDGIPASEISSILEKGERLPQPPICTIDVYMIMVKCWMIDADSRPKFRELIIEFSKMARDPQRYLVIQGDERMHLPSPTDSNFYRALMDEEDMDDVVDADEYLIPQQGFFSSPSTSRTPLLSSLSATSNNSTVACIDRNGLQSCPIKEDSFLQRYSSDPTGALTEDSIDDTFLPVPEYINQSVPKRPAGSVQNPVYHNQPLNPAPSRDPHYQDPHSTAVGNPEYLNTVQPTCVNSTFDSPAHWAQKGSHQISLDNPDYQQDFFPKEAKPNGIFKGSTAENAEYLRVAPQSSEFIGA

GI50 [1]: 16.7 nM | GI50 [2]: 22 nM | IC50 [3]: 375 nM | Instrinsic clearance of liver microsomal protein, CLint [4]: 17.4 μL/min/mg proteins | Instrinsic clearance of liver microsomal protein, CLint [5]: 65.4 μL/min/mg proteins | Instrinsic clearance of liver microsomal protein, CLint [6]: 15.6 μL/min/mg proteins | Instrinsic clearance of liver microsomal protein, CLint [7]: 22 μL/min/mg proteins | Instrinsic clearance of liver microsomal protein, CLint [8]: 16.4 μL/min/mg proteins
SMILES: COc1cc(N2CCC(N3CCN(C)CC3)CC2)c(C)cc1Nc1ncc(Br)c(Nc2ccc3nccnc3c2P(C)(C)=O)n1 [A, reference compound]
IC50 [9]: 13500 nM
